This note sets out measurements from ChEMBL document CHEMBL1201862, “PubChem BioAssay data set” (2004).

What all share (assay): DTP human tumour cell line panel, 48 h
In assay [1] the test system is KM12.
Assay [2] concerns Hs-578T.
In assay [3] the test system is PC-3.
Assay [4] concerns NCI-H522.
Assay [5] deals with SF-268.
Assay [6] relates to RPMI-8226.
Assay [7] deals with T47D.
Assay [8] relates to IGROV-1.
The subject of assay [9] is SNB-19.
In assay [10] the test system is NCI/ADR-RES.
Assay [11] deals with HCT-15.
The subject of assay [12] is HOP-92.
In assay [13] the test system is UO-31.
Assay [14] deals with SK-MEL-28.
The test system of assay [15] is SK-OV-3.
For assay [16], the system named is RXF 393.
For assay [17], the system named is HCC 2998.
Assay [18] concerns OVCAR-8.

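Grown in 96-well plates, cells were treated for 48 hours with each compound at five concentrations. Insufficient inhibition: endpoint recorded as highest concentration tested. The concentration for 50% growth inhibition is given as GI50.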 Active and inactive are the calls of the source. Rule as the data show it: active = GI50 up to about 1.1 µM and inactive = higher.

In the case of `O=C(O)c1cc(C(=O)O)nc(C(=O)O)c1`, the GI50 in assay [1], in assay [2], in [3], in assay [4], in assay [5] and in assay [6] was > 100 µM (inactive) each time. The GI50 was > 100 µM (inactive) in assay [7]; > 100 µM (inactive) in assay [8]; > 100 µM (inactive) in assay [9]; > 100 µM (inactive) in assay [10]; > 100 µM in [11]; > 100 µM (inactive) in assay [12]. The GI50 in assay [13], in assay [14], in assay [15], in assay [16], in assay [17] and in assay [18] was > 100 µM (inactive) each time.

For the compound `CC[P+](c1ccccc1)(N(C)C)N(C)C`, the GI50 was > 100 µM (inactive) in assay [1]; > 100 µM (inactive) in [2]; 60.5 µM (inactive) in assay [3]; 89.5 µM (inactive) in assay [4]; 95.1 µM (inactive) in assay [5]; 71.9 µM (inactive) in assay [6]. For the same compound, the GI50 in [7] was > 100 µM (inactive); in assay [8], > 100 µM (inactive); in assay [9], > 100 µM (inactive); in assay [10] it was > 100 µM (inactive); in assay [11], > 100 µM; in assay [12] it was 38.9 µM (inactive). For the same compound, the GI50 in assay [13], in [14], in assay [15], in assay [16], in assay [17] and in assay [18] was > 100 µM (inactive) each time.

As to `CCCCC/N=C/c1c(O)c(O)c(C(C)C)c2cc(C)c(-c3c(C)cc4c(C(C)C)c(O)c(O)c(/C=N/CCCCC)c4c3O)c(O)c12`, the GI50 was 4.7 µM (inactive) in assay [1]; 17.2 µM (inactive) in assay [2]; 5.35 µM (inactive) in assay [3]; 5.05 µM (inactive) in assay [4]; 6.5 µM (inactive) in assay [5]; 8.26 µM (inactive) in assay [6]. The GI50 in assay [7] was 3.98 µM (inactive); in [8] it was 9.98 µM (inactive); in assay [9], 3.78 µM (inactive); in assay [10], 27.1 µM (inactive); in [11] it was 5.85 µM; in [12], 3.73 µM (inactive). Besides, the GI50 in [13] is 7.13 µM (inactive); in [14], 6.19 µM (inactive); in assay [15] it was 7.06 µM (inactive); in assay [16], 11.2 µM (inactive); in assay [17], 10.7 µM (inactive); in assay [18], 7.4 µM (inactive).

In the case of `CC(C)C1OC(/C=C/c2ccccc2)OCC1(C)C` (configuration not stated), the GI50 was 31 µM (inactive) in [1]; 22.8 µM (inactive) in assay [2]; 37.1 µM (inactive) in assay [3]; 13.8 µM (inactive) in [4]; 33 µM (inactive) in [5]; 17.8 µM (inactive) in assay [6]. Also, the GI50 in [7] was 31.4 µM (inactive); in [8] it was 40.1 µM (inactive); in assay [9], 41.4 µM (inactive); in [10], 41.6 µM (inactive); in [11] it was 24.8 µM; in [12] it was 17.9 µM (inactive). Also, the GI50 in assay [13] is 34.8 µM (inactive); in assay [14], 53.3 µM (inactive); in assay [15] it was 48.3 µM (inactive); in assay [16], 18.1 µM (inactive); in [17] it was 19.6 µM (inactive); in assay [18], 31.6 µM (inactive).

Take `c1ccc(C(CCN2CCCC2)c2ccccn2)cc1` (configuration not stated): the GI50 in [1], in assay [2], in assay [3], in [4], in assay [5] and in assay [6] was > 100 µM (inactive) in each case. The GI50 is > 100 µM (inactive) in assay [7]; > 100 µM (inactive) in [8]; > 100 µM (inactive) in assay [9]; > 100 µM (inactive) in assay [10]; > 100 µM in assay [11]; > 100 µM (inactive) in [12]. Further, the GI50 in assay [13], in assay [14], in assay [15], in assay [16], in [17] and in assay [18] was > 100 µM (inactive) each time.

In the case of `COc1ccc(/N=C(C)/C(C)=N/c2ccc(OC)cc2)cc1`, the GI50 in assay [1] is 6.85 µM (inactive); in assay [2], > 100 µM (inactive); in assay [3] it was 40.7 µM (inactive); in assay [4] it was > 100 µM (inactive); in assay [5] it was 52.5 µM (inactive); in [6], 25.1 µM (inactive). Further, the GI50 was 77.1 µM (inactive) in assay [7]; > 100 µM (inactive) in [8]; > 100 µM (inactive) in [9]; 62.8 µM (inactive) in assay [10]; 15.6 µM in assay [11]; 88.1 µM (inactive) in assay [12]. The GI50 is 6.97 µM (inactive) in assay [13]; > 100 µM (inactive) in [14]; > 100 µM (inactive) in assay [15]; > 100 µM (inactive) in assay [16]; 20.2 µM (inactive) in [17]; 58.6 µM (inactive) in assay [18].

Take `O=C(N/N=C/c1c(-c2ccccc2)no[n+]1[O-])N1CCOCC1`: the GI50 in assay [1], in assay [2], in [3], in assay [4], in [5] and in [6] was > 100 µM (inactive) in each case. The GI50 in assay [7] is > 100 µM (inactive); in assay [8] it was > 100 µM (inactive); in [9] it was > 100 µM (inactive); in assay [10], > 100 µM (inactive); in [11], > 100 µM; in assay [12] it was > 100 µM (inactive). Also, the GI50 in assay [13], in [14], in assay [15], in [16], in assay [17] and in [18] was > 100 µM (inactive) each time.

As for `O=C1C=C(Nc2cccnc2)c2ccccc2/C1=N/O`, the GI50 is 13.6 µM (inactive) in [1]; 33.4 µM (inactive) in [2]; 19.5 µM (inactive) in assay [3]; 9.89 µM (inactive) in assay [4]; 9.77 µM (inactive) in assay [5]; 38 µM (inactive) in [6]. For the same compound, the GI50 in assay [7] is 30.1 µM (inactive); in assay [8] it was 13.6 µM (inactive); in [9] it was 1.38 µM (inactive); in assay [10] it was 21.5 µM (inactive); in [11] it was 15.2 µM; in [12] it was 21.8 µM (inactive). Moreover, the GI50 was 21 µM (inactive) in assay [13]; 46.2 µM (inactive) in assay [15]; 33.7 µM (inactive) in assay [16]; 22.5 µM (inactive) in assay [17]; 21.5 µM (inactive) in [18].

On to `CN1CCC23c4c5ccc(O)c4OC2c2[nH]c4ccccc4c2CC3(O)C1C5` (configuration not stated), for which the GI50 in assay [1] is 51.2 µM (inactive); in assay [2], 24.2 µM (inactive); in [3] it was 41.6 µM (inactive); in [4], 37 µM (inactive); in [5] it was 32.1 µM (inactive); in [6] it was 19.5 µM (inactive). The GI50 is 20.8 µM (inactive) in assay [7]; 66.4 µM (inactive) in [8]; 65.5 µM (inactive) in assay [9]; > 100 µM (inactive) in assay [10]; 25.6 µM in [11]; 16.3 µM (inactive) in assay [12]. Besides, the GI50 is 15.2 µM (inactive) in assay [13]; 13.7 µM (inactive) in [14]; > 100 µM (inactive) in assay [15]; 23.5 µM (inactive) in assay [16]; 17.5 µM (inactive) in assay [17]; 54.8 µM (inactive) in [18].

As to `N#Cc1ccc(Oc2nc3ccccc3nc2C(=O)O)cc1`, the GI50 in assay [1], in assay [2], in assay [3], in assay [4], in assay [5] and in [6] was > 100 µM (inactive) each time. In addition, the GI50 in assay [7] was > 100 µM (inactive); in assay [8], > 100 µM (inactive); in [9], > 100 µM (inactive); in assay [10] it was > 100 µM (inactive); in assay [11] it was > 100 µM; in assay [12], > 100 µM (inactive). Further, the GI50 in assay [13], in assay [14], in assay [15], in assay [16], in [17] and in [18] was > 100 µM (inactive) throughout.

For the compound `CN(C)CCCc1c[nH]c2ccccc12`, the GI50 in [1], in assay [2], in assay [3], in [4], in assay [5] and in [6] was > 100 µM (inactive) in each case. Further, the GI50 in assay [7] is > 100 µM (inactive); in assay [8] it was > 100 µM (inactive); in [9] it was > 100 µM (inactive); in [10], > 100 µM (inactive); in [11], > 100 µM; in assay [12], > 100 µM (inactive). The GI50 in [13], in assay [14], in [15], in assay [16], in assay [17] and in assay [18] was > 100 µM (inactive) each time.
